Measured values from patent US4956294A, “Culture of Streptoverticillium synroense for producing an antibacterial” (Merck & Co., Inc., priority 1989, dated 1990).
≈ marks a conversion by molar mass, not a printed value. Entries after “also recorded” stand apart in the source; their conditions may differ.

Assays:
Prot. morganii Sm^r 2833 = test: Agar dilution, trypticase soy agar; settings: Morganella morganii, 20 h
Prot. vulgaris 2829 = test: Agar dilution, antagonist-free medium; settings: Proteus vulgaris, 2829, 20 h
[1] = system: Xanthomonas vesicatoria 815; test: Inhibition zone, agar plate; type: cell-based; settings: 15λ, read-out: Inhibition Zone Diameter
[2] = system: Escherichia coli 60 (9637); test: Inhibition zone, agar plate; type: cell-based; settings: 15λ, read-out: Inhibition Zone Diameter
E. coli TEM 2+ 4351 [3] = test: Agar dilution, trypticase soy agar; settings: Escherichia coli, 20 h
Ent. cloacae P99- 2647 = test: Agar dilution, trypticase soy agar; settings: Enterobacter cloacae, P992647, 20 h
E. coli TEM 2+ 4351 [4] = test: Agar dilution, antagonist-free medium; settings: Escherichia coli, 20 h
B. ovatus Pen^r 3248 = test: Anaerobic agar dilution, Wilkens-Chalgren agar; type: cell-based; settings: Bacteroides ovatus, 48 h
E. coli TEM 2+ DC2 4352 = test: Agar dilution, trypticase soy agar; settings: Escherichia coli, 20 h
[5] = system: Propionibacterium acnes 2249; test: Anaerobic agar dilution, Wilkens-Chalgren agar; type: cell-based; settings: Cutibacterium acnes, 2249, 48 h
Candida albicans 992 = test: Inhibition zone, agar plate; type: cell-based; settings: 15λ, read-out: Inhibition Zone Diameter
Description: (§1) A crystalline sample of L-654,040 was dissolved in distilled water. Aliquots of 15λ were deposited on the surface of each seeded nutrient agar susceptibility test plate, followed by overnight incubation Plates were then measured for activity by determining the inhibition zone diameter under the previously placed 15λ aliquot.

Bacillus sp. 633 = test: Inhibition zone, agar plate; type: cell-based; settings: 15λ, read-out: Inhibition Zone Diameter
Description: as §1

[6] = system: C. difficile Clind^r 4273; test: Anaerobic agar dilution, Wilkens-Chalgren agar; type: cell-based; settings: Clostridioides difficile, 48 h
B. fragilis Pen^r 3214 = test: Anaerobic agar dilution, Wilkens-Chalgren agar; type: cell-based; settings: Bacteroides fragilis, 48 h
Aspergillus niger 442 = test: Inhibition zone, agar plate; type: cell-based; settings: 15λ, read-out: Inhibition Zone Diameter
Aerobacter aerogenes 835 = test: Inhibition zone, agar plate; type: cell-based; settings: Klebsiella aerogenes, 15λ, read-out: Inhibition Zone Diameter
Staph. aureus 2865 = test: Agar dilution, antagonist-free medium
[7] = system: Clostridium perfringens NCCLS control strain 4418; test: microbe, parasite or virus in culture; type: cell-based; settings: 48 h
Ser. marcescens 2840 [8] = test: Agar dilution, antagonist-free medium; settings: Serratia marcescens, 2840, 20 h
[9] = system: Peptostreptococcus anaerobius 3282; test: Anaerobic agar dilution, Wilkens-Chalgren agar; type: cell-based; settings: Peptostreptococcus anaerobius, 3282, 48 h
[10] = system: Bacteroides fragilis Met^r . Pen^r 4324; test: Anaerobic agar dilution, Wilkens-Chalgren agar; type: cell-based; settings: 48 h
[11] = system: B. thetalotamicron Clind^r, NCCLS control strain 4420; test: Anaerobic agar dilution, Wilkens-Chalgren agar; type: cell-based; settings: 48 h
[12] = system: Brucella bronchiseptica 965; test: microbe, parasite or virus in culture; type: cell-based; settings: Bordetella bronchiseptica, 965, read-out: Inhibition Zone Diameter
[13] = system: Bordetella bronchiseptica (3771); test: Protection and survival of infected mice; settings: intraperitoneal
Ps. aeruginosa 4279 = test: Agar dilution, antagonist-free medium; settings: Pseudomonas aeruginosa, 4279, 20 h
[14] = system: Ps. aeruginosa RPL11+ 3350; test: Agar dilution, trypticase soy agar; settings: Pseudomonas aeruginosa, 20 h
C. perfringens 3513 = test: microbe, parasite or virus in culture; type: cell-based; settings: Clostridium perfringens, 3513, 48 h
[15] = system: Pseudomonas aeruginosa 2824; test: Inhibition zone, agar plate; type: cell-based; settings: 15λ, read-out: Inhibition Zone Diameter
[16] = system: Bacillus subtilis 964 (6633); test: Inhibition zone, agar plate; type: cell-based; settings: 15λ, read-out: Inhibition Zone Diameter
Ser. marcescens 2840 [17] = test: Agar dilution, trypticase soy agar; settings: Serratia marcescens, 2840, 20 h
Eubacterium limosum 3344 = test: Anaerobic agar dilution, Wilkens-Chalgren agar; type: cell-based; settings: inoculum 10^6 cfu/spot, 35° C., 48 hours
Description: (a) Wilkens-Chalgren agar was used instead of antagonist-free medium (Roche);
(b) The inoculum/spot was about 10^6 instead of about 10^4 ;
(c) The incubation period was for 48 hours, not 24 hours; and
(d) Incubations were performed under anaerobic conditions.

[18] = system: B. distasonis Pen^r, Fox^r 3445; test: Anaerobic agar dilution, Wilkens-Chalgren agar; type: cell-based; settings: Parabacteroides distasonis, 48 h
C. perfringens 3510 = test: microbe, parasite or virus in culture; type: cell-based; settings: Clostridium perfringens, 3510, 48 h
[19] = system: B. fragilis NCCLS control strain 4419; test: Anaerobic agar dilution, Wilkens-Chalgren agar; type: cell-based; settings: Bacteroides fragilis, 48 h
E. coli DC2 4353 = test: Agar dilution, antagonist-free medium
[20] = system: Fusobacterium mortiferum Fox^r 3345; test: Anaerobic agar dilution, Wilkens-Chalgren agar; type: cell-based; settings: 48 h

C[C@H](CNC(=O)[C@H]1N=C(c2cccc(O)c2O)O[C@@H]1C)C(=O)N[C@@H]1CCCN(O)C1=O [L-654,040, 2-(2,3-dihydroxyphenyl)-4,5-dihydro-N-[3-[(1-hydroxy-2-oxo-3(R)-piperidinyl)-amino]-2(R)-methyl-3-oxopropyl]-5R-methyl-4S-oxazolecarboxamide]
MIC (Prot. morganii Sm^r 2833): > 128 µg/mL
MIC (Prot. vulgaris 2829): > 256 µg/mL
zone of inhibition at 500 µg/mL ([1]; 0.5 mg/ml in distilled H2O): 0 mm
zone of inhibition at 2000 µg/mL ([1]; 2 mg/ml in distilled H2O): 0 mm
zone of inhibition at 500 µg/mL ([2]; 0.5 mg/ml in distilled H2O): 0 mm
zone of inhibition at 2000 µg/mL ([2]; 2 mg/ml in distilled H2O): 0 mm
MIC (E. coli TEM 2+ 4351 [3]): > 128 µg/mL
MIC (Ent. cloacae P99- 2647): > 128 µg/mL
MIC (E. coli TEM 2+ 4351 [4]): > 256 µg/mL
MIC (B. ovatus Pen^r 3248): > 128 µg/mL
MIC (E. coli TEM 2+ DC2 4352): 128 µg/mL (≈ 295 µM)
MIC [5]: 128 µg/mL (≈ 295 µM)
zone of inhibition at 500 µg/mL (Candida albicans 992; 0.5 mg/ml in distilled H2O): 16 mm
zone of inhibition at 2000 µg/mL (Candida albicans 992; 2 mg/ml in distilled H2O): 24 mm
zone of inhibition at 500 µg/mL (Bacillus sp. 633; 0.5 mg/ml in distilled H2O): 23 mm
zone of inhibition at 2000 µg/mL (Bacillus sp. 633; 2 mg/ml in distilled H2O): 28 mm
MIC [6]: 128 µg/mL (≈ 295 µM)
MIC (B. fragilis Pen^r 3214): > 128 µg/mL
zone of inhibition at 500 µg/mL (Aspergillus niger 442; 0.5 mg/ml in distilled H2O): 0 mm
zone of inhibition at 2000 µg/mL (Aspergillus niger 442; 2 mg/ml in distilled H2O): 0 mm
zone of inhibition at 500 µg/mL (Aerobacter aerogenes 835; 0.5 mg/ml in distilled H2O): 0 mm
zone of inhibition at 2000 µg/mL (Aerobacter aerogenes 835; 2 mg/ml in distilled H2O): 0 mm
sensitivity of strain (Staph. aureus 2865; Staphylococcus aureus 2865): sensitive
MIC (Staph. aureus 2865; Staphylococcus aureus, 2865, 20 h): 32 µg/mL (≈ 73.7 µM)
MIC [7]: 64 µg/mL (≈ 147 µM)
MIC (Ser. marcescens 2840 [8]): > 256 µg/mL
MIC [9]: > 128 µg/mL
MIC [10]: 128 µg/mL (≈ 295 µM)
MIC [11]: > 128 µg/mL
zone of inhibition at 500 µg/mL [12]: 16 mm
zone of inhibition at 2000 µg/mL [12]: 24 mm
protection against infection [13]: did not protect
survival time ([13]; 160 mg/kg x 2, significant only in Pasteurella-infected animals): prolongation of survival time was observed; also recorded: did prolong the survival time
MIC (Ps. aeruginosa 4279): > 256 µg/mL
MIC [14]: > 128 µg/mL
MIC (C. perfringens 3513): 128 µg/mL (≈ 295 µM)
zone of inhibition at 500 µg/mL ([15]; 0.5 mg/ml in distilled H2O): 0 mm
zone of inhibition at 2000 µg/mL ([15]; 2 mg/ml in distilled H2O): 0 mm
zone of inhibition at 500 µg/mL ([16]; 0.5 mg/ml in distilled H2O): 12 mm
zone of inhibition at 2000 µg/mL ([16]; 2 mg/ml in distilled H2O): 14 mm
MIC (Ser. marcescens 2840 [17]): > 128 µg/mL
MIC (Eubacterium limosum 3344): 128 µg/mL (≈ 295 µM)
MIC [18]: > 128 µg/mL
solubility (Solubility in water; boiling water): ~10000 µg/mL (≈ 23000 µM)
solubility in water (Solubility in water; water, for dosing solutions): limited solubility
MIC (C. perfringens 3510): 128 µg/mL (≈ 295 µM)
MIC [19]: > 128 µg/mL
relative activity of parent and acetyl derivative (E. coli DC2 4353; E. coli permeability mutant): equal activity
sensitivity of strain (E. coli DC2 4353; E. coli permeability mutant): sensitive
MIC (E. coli DC2 4353; Escherichia coli, DC24353, 20 h): 32 µg/mL (≈ 73.7 µM)
MIC [20]: > 128 µg/mL
